Data as given in patent US9447134B2 (priority 2012, dated 2016).

Columns and labels:
F. tularensis IMPDH = F. tularensis IMPDH (Francisella tularensis, UniProt Q5NFC2); assay: biochemical
B. anthracis IMPDH = B. anthracis IMPDH (Bacillus anthracis, UniProt A0A6L8P2U9); assay: biochemical
B. anthracis IMPDH, sequence (A0A6L8P2U9 1-487): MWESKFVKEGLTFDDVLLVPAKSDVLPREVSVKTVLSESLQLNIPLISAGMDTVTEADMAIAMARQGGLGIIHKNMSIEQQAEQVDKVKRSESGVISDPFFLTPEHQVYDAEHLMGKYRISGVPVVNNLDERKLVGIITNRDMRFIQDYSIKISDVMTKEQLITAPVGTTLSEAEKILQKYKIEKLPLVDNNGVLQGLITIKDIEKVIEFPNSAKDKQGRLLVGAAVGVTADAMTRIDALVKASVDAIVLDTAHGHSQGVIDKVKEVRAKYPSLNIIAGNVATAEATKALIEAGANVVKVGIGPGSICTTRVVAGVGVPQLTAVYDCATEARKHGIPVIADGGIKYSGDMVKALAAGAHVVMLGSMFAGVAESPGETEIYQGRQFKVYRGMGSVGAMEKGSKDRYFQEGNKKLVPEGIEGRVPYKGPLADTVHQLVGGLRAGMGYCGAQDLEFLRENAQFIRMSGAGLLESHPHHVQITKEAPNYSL

F. tularensis IMPDH, sequence (Q5NFC2 1-486): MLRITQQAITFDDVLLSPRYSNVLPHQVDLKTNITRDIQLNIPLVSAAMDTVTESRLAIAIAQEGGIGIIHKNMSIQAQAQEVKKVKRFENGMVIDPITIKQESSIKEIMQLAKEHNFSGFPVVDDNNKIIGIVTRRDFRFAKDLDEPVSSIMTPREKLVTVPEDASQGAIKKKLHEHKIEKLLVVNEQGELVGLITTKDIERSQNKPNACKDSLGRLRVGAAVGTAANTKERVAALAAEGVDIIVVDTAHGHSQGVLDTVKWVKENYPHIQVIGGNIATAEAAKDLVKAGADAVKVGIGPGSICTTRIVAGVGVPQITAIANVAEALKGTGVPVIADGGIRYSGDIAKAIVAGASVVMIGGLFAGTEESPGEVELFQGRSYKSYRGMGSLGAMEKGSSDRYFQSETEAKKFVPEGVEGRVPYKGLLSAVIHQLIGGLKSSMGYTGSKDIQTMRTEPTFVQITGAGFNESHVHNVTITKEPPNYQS

Structure (SMILES) | melting point [°C] | IC50 (F. tularensis IMPDH) [nM] | IC50 (B. anthracis IMPDH) [nM]
C=C(C)c1cccc(C(C)(C)NC(=O)Nc2ccccc2)c1 [Compound 5a, 1-Phenyl-3-(2-(3-(prop-1-en-2-yl)phenyl)propan-2-yl)urea] | 188 to 190 |  | 
C=C(C)c1cccc(C(C)(C)NC(=O)Nc2ccc(Cl)c(Cl)c2)c1 [Compound 5h, 1-(3,4-Dichlorophenyl)-3-(2-(3-(prop-1-en-2-yl)phenyl)propan-2-yl)urea] | 198 to 200 |  | 
C=C(C)c1cccc(C(C)(C)NC(=O)Nc2ccc3ccccc3c2)c1 [Compound 5o, 1-(Naphthalen-2-yl)-3-(2-(3-(prop-1-en-2-yl)phenyl)propan-2-yl)urea] | 201 to 203 |  | 
C=C(C)c1cccc(C(C)(C)NC(=O)Nc2ccc3ccccc3n2)c1 [Compound 5t, 1-(2-(3-(prop-1-en-2-yl)phenyl)propan-2-yl)-3-(quinolin-2-yl)urea] | 126 to 128 |  | 
C/C(=N\O)c1cccc(C(C)(C)NC(=O)Nc2ccc(Cl)c(C(F)(F)F)c2)c1 [Compound 7a, (E)-1-(4-Chloro-3-(trifluoromethyl)phenyl)-3-(2-(3-(1-(hydroxyimino)ethyl)phenyl)propan-2-yl)urea] | 194 to 196 |  | 
C/C(=N\O)c1cccc(C(C)(C)NC(=O)Nc2ccc3cccnc3c2)c1 [Compound 7e, (E)-1-(2-(3-(1-(Hydroxyimino)ethyl)phenyl)propan-2-yl)-3-(quinolin-7-yl)urea] | 164 to 166 |  | 
Cn1nc(CC(=O)Nc2ccc(Br)c(C(F)(F)F)c2)c2ccccc2c1=O [Compound D45] |  | 270 | 
Cn1nc(CC(=O)Nc2ccc(Cl)c(F)c2)c2ccccc2c1=O [Compound D52] |  |  | 900
CC(=O)c1cccc(C(C)(C)OC(=O)Nc2ccc(Cl)cc2)c1 [Compound P112] |  | 390 | 520
C=C(C)c1cccc(C(C)(C)NC(=O)Nc2ccc3c(c2)OCCO3)c1 [Compound P113] |  | 41 | 110
CC(=NOC(C)(C)C)c1cccc(C(C)(C)NC(=O)Nc2ccc(Cl)c(C(F)(F)F)c2)c1 [Compound P114] |  | 6900 | 56
C/C(=N\OC(C)(C)C)c1cccc(C(C)(C)NC(=O)Nc2ccc(Cl)c([N+](=O)[O-])c2)c1 [Compound P127] |  | 1800 | 94
C=C(C)c1cccc(C(C)(C)NC(=O)Nc2ccc(Cl)c(C(=O)O)c2)c1 [Compound P138] |  | 120 | 67
CC(NC(=O)c1ccc2oc(-c3ccncc3)nc2c1)c1ccccc1 (centres unmarked) [Compound Q63] |  | 200000 | 200000
C[C@H](Oc1cccc(Cl)c1Cl)C(=O)Nc1ccc2nc(-c3cncs3)oc2c1 [Compound Q64, (S)-2-(2,3-dichlorophenoxy)-N-(2-(thiazol-5-yl)benzo[d]oxazol-6-yl) propanamide] |  | 93.7 | 203
C[C@H](Nc1cccc(Cl)c1Cl)C(=O)Nc1ccc2oc(-c3ccncc3)nc2c1 [Compound Q67, (S)-2-(2,3-dichlorophenylamino)-N-(2-(pyridine-4-yl)benzo[d]oxazol-5-yl)propanamide] |  | 27.1 | 26.8
C[C@H](Sc1cccc(Cl)c1Cl)C(=O)Nc1ccc2oc(-c3ccncc3)nc2c1 [Compound Q75] |  | 192 | 151
